From the METLIN SMRT retention time set (Domingo-Almenara et al. 2019) come the findings set out here.

Molecules are shown by their SMILES.

The nature of the series: gradient 5% acetonitrile 3 min, to 50% in 2 min, to 85% in 15 min, held 3 min, 100 µL/min. The following applies: column: Zorbax Extend-C18 2.1 x 50 mm; eluents: water / acetonitrile, 0.1% formic acid. An outline of the steps: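 Retention times of pure standards were taken from adduct peaks that were selected by computer and manually inspected. Over 3 months, mixtures of ~100 molecules were run by HPLC–quadrupole time-of-flight mass spectrometry in positive and negative ionization mode. The Zorbax Extend-C18 column (2.1 × 50 mm, 1.8 μm) ran at 100 μL/min in water and acetonitrile, each containing 0.1% formic acid, with 40 μL dead volume and 900 μL dwell volume.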
As for `O=C(Cn1cnc2nc3c(cc2c1=O)CCCC3)NCc1cccc(Br)c1`, the RP-LC retention time came to 756 s.

The molecule `CC(=O)N1CCc2cc(N3CC(C(=O)NC(C)C)CC3=O)ccc21` (centres undefined) had an RP-LC retention time of 613 s.

`O=c1ccc(-c2ccc3c(c2)OCO3)nn1CCc1nc(-c2ccccn2)no1` displayed an RP-LC retention time of 730 s.

With `CSc1ccc(CNC(=O)C2CCCN(c3nc4c(s3)c(C)nn4-c3ccc(C)cc3)C2)cc1` (centres undefined), the RP-LC retention time stood at 1210 s.

Turning to `Cc1ccc(-c2cn3ccn(-c4ccc(F)cc4)c(=O)c3n2)cc1C`, the RP-LC retention time came to 901 s.

In turn, `COCCc1nncn1C1CCN(C(=O)c2cc(Cl)ccc2F)CC1` displayed an RP-LC retention time of 657 s.

As to `COCCN(C)C(=O)c1cn(C2CN(C(=O)NCC(C)C)C2)nn1`, the RP-LC retention time was 624 s.

For the molecule `O=C(Cn1nc2c3cc(F)ccc3ncn2c1=O)Nc1ccc2c(c1)OCO2`, the RP-LC retention time came out at 668 s.

`O=C(c1nc(Cn2nc(-c3ccc(F)cc3)ccc2=O)no1)N1CCCC1` displayed an RP-LC retention time of 900 s.

The molecule `COc1ccc(-c2cn3cccnc3n2)cc1NC(=O)c1ccc(Cl)cc1` displayed an RP-LC retention time of 743 s.

The molecule `CCOC(=O)c1nc(Nc2cccc(SC)c2)c2ccccc2n1` came in with an RP-LC retention time of 940 s.

`O=c1c2nc(-c3ccc(F)cc3F)cn2ccn1-c1ccc(Cl)cc1` returned an RP-LC retention time of 921 s.

Regarding `N#Cc1ccc(C(=O)NC2CCN(C(=O)C3CC3)C2)cc1` (centres undefined), the RP-LC retention time is 629 s.

Molecule `CN1C(=O)c2cc(C(=O)NCc3ccc(Cl)cc3)nn2CC1(C)C(=O)NCc1ccc(F)cc1` (centres undefined) gave an RP-LC retention time of 805 s.

Take `COC(=O)c1ccc2c(=O)n(-c3cc(C)cc(C)c3)c(N3CCCC3)nc2c1`: the RP-LC retention time is 1240 s.

Take `CCN1C(=O)COc2ccc(-c3csc(NC(=O)c4cccc(OC)c4)n3)cc21`: the RP-LC retention time was 967 s.

In turn, `Cc1cc(C(=O)N2CCN(C(=O)C3CC3c3cccs3)CC2)c(C)o1` (centres undefined) had an RP-LC retention time of 767 s.

In turn, `CCOC(=O)C1CCN(c2ncccc2-c2nnc(-c3ccccc3)o2)CC1` displayed an RP-LC retention time of 1010 s.

As for `Cc1cccc(CN2CC(N(C3CCOCC3)S(C)(=O)=O)C2)c1`, the RP-LC retention time came out at 621 s.

With `CCCc1cc(N2CCN(C(=O)c3ccco3)CC2)nc2nnc(CC)n12`, the RP-LC retention time stood at 617 s.

Take `CCCCN(C)C(=O)CCC(=O)Nc1ccc2nc(N3CCN(C)CC3)cc(C)c2c1`: the RP-LC retention time came to 546 s.

In the case of `CC(C)n1c(=O)c2ccccc2n(Cc2nc(-c3ccc(F)cc3)no2)c1=O`, the RP-LC retention time came out at 1110 s.

Consider `O=C1CCCC(=O)N1CCS(=O)(=O)Nc1ccc(Cl)c(N2CCCS2(=O)=O)c1`, for which the RP-LC retention time was determined as 657 s.

With `COCc1nn(C)c2c1CN(S(=O)(=O)c1cccc(C#N)c1)CC2`, the RP-LC retention time was found to be 676 s.

On to `COc1ccccc1CNc1ncnc2c1CCC2`, for which the RP-LC retention time was found to be 621 s.

`Cc1ccc(CNC(=O)CN2C(=O)C3CCCCN3c3ccc(S(=O)(=O)N4CCCC4)cc32)cc1` (centres undefined) yielded an RP-LC retention time of 966 s.

Take `Cc1ccc(C(=O)N2CCC(C)CC2)cc1[N+](=O)[O-]`: the RP-LC retention time is 830 s.

Turning to `O=C(O)c1cc(-c2ccccc2)nc2ccccc12`, the RP-LC retention time worked out at 849 s.

`CCc1ccc(NC(=O)c2cn(CC3CCCO3)cc3c(=O)n(-c4ccccc4)nc2-3)cc1` (centres undefined) registered an RP-LC retention time of 1160 s.

The molecule `O=S(=O)(NCCC1=CCCCC1)c1ccccc1-c1nc(-c2cccc(F)c2)no1` showed an RP-LC retention time of 1400 s.

As to `Cc1[nH]c(C(=O)N2CCC(CC(=O)NCc3cccc(F)c3)CC2)c(C)c1C(=O)OC(C)C`, the RP-LC retention time stood at 839 s.

In turn, `Cc1nc([C@@H]2CN(C(=O)c3cc(C4CC4)[nH]n3)C[C@H]2C(N)=O)n[nH]1` yielded an RP-LC retention time of 540 s.

With `COc1ccc(N2CC(c3noc(-c4ccc5c(c4)OCO5)n3)CC2=O)cc1` (centres undefined), the RP-LC retention time turned out to be 874 s.

Molecule `COc1ccc(-c2nc(Nc3ccccn3)sc2C)cc1` displayed an RP-LC retention time of 807 s.

`Cc1cc(N2CCN(C)CC2)n2nc(CN3CCN(c4cccc(C)c4C)CC3)nc2n1`: the RP-LC retention time worked out at 570 s.

Molecule `CCCNC(=O)C1CCCN(c2ccc(SCC(=O)Nc3ccc(C)cc3Cl)nn2)C1` (centres undefined) showed an RP-LC retention time of 748 s.

Consider `O=C(NCC1(N2CCOCC2)CCOC1)Nc1cc(F)ccc1F` (centres undefined), for which the RP-LC retention time was 592 s.

For the molecule `CCc1cc(=O)n(CC(=O)Nc2cc(F)ccc2C)c(N2CCOCC2)n1`, the RP-LC retention time worked out at 776 s.

`Cn1nccc1C(=O)NCc1ccc(-c2nc(-c3ccccc3)no2)s1` yielded an RP-LC retention time of 932 s.

The molecule `COCCc1noc(-c2nc(-c3ccccc3F)no2)n1` showed an RP-LC retention time of 926 s.

Molecule `c1ccc(-n2nnc(-c3noc(-c4ccccn4)n3)c2-c2ccncc2)cc1` displayed an RP-LC retention time of 718 s.

The molecule `COC(=O)c1ccc(NC(=O)C2CC(=O)N(c3ccc4c(c3)CCN4C(C)=O)C2)cc1` (centres undefined) gave an RP-LC retention time of 700 s.

The molecule `COc1ccc(S(=O)(=O)NCc2c(-c3ccccc3)nc3sc(C)nn23)cc1` had an RP-LC retention time of 832 s.

For `Cc1nn(Cc2nc(-c3ccc(NC(=O)C4CCCC4)cc3)oc2C)c(C)c1C`, the RP-LC retention time worked out at 860 s.

The molecule `O=C(Nc1ccccc1)NC1CCCN(c2cc(-c3ccncc3)[nH]n2)C1` (centres undefined) yielded an RP-LC retention time of 602 s.

`COc1ccc(NC(=O)C2CC(=O)N(c3ccc4c(c3)CCN4C(=O)C3CC3)C2)c(C)c1` (centres undefined) returned an RP-LC retention time of 740 s.

In turn, `CCOC(=O)c1cc(S(=O)(=O)N2CCCC2C(=O)Nc2cccc(C(F)(F)F)c2)cn1C` (centres undefined) yielded an RP-LC retention time of 1050 s.

In turn, `O=C([C@@H]1C[C@H](Oc2ccccc2)CN1C(=O)CCc1nc2ccccc2s1)N1CCCC1` came in with an RP-LC retention time of 815 s.

The molecule `O=C(CCc1nnc2c3cc(-c4ccc(F)cc4)nn3ccn12)NCCc1cccnc1` had an RP-LC retention time of 601 s.

For the molecule `C[C@H]([C@H](C)N1CC(=O)NC(=O)C1)N1CC(=O)NC(=O)C1`, the RP-LC retention time is 610 s.

`COc1cccc(CNC(=O)C2(c3ccc(NS(C)(=O)=O)cc3)CCCCC2)c1`: the RP-LC retention time turned out to be 867 s.

For the molecule `COc1ccc(NC(=O)N2c3ccccc3CC2c2nc(C3CC3)no2)cc1OC` (centres undefined), the RP-LC retention time stood at 933 s.

Consider `O=C(Nc1cc(-c2ccccn2)no1)c1ccc(Br)cc1`, for which the RP-LC retention time was determined as 868 s.

Consider `Clc1ccc(-c2ccc(CNCc3ccncc3)o2)c(Cl)c1`, for which the RP-LC retention time came out at 742 s.

With `Cn1cc(CN2CCCC(COc3ccccc3C(=O)N3CCCC3)C2)c2ccccc21` (centres undefined), the RP-LC retention time turned out to be 695 s.

`CCCn1cc(CCNC(=O)c2ccccc2C)c2cccnc21` gave an RP-LC retention time of 748 s.

`CC(C)NC(=O)C1CCN(c2cnn(Cc3ccccc3)c(=O)c2)CC1` came in with an RP-LC retention time of 689 s.

Turning to `Cc1ccc(CNC(=O)Cn2c(C)cc(-c3nnc(C4CCC4)o3)c2C)cc1`, the RP-LC retention time came to 903 s.

`Cc1sc2ccn(CC(C)C)c(=O)c2c1C(=O)NCc1ccco1` yielded an RP-LC retention time of 889 s.

Molecule `Cc1ccc2[nH]cc(CCN3CC(C(=O)Nc4ccc5c(c4)OCCO5)CC3=O)c2c1` (centres undefined) had an RP-LC retention time of 777 s.

For the molecule `Cc1ccc(Nc2nc(-c3cccnc3)nc3ccccc23)cc1`, the RP-LC retention time worked out at 742 s.

On to `O=C(c1cc2c(=O)n(Cc3ccccc3)ccc2s1)N1CCOCC1`, for which the RP-LC retention time came to 716 s.

In turn, `Cc1cc(C)n(CC(=O)N2CCC[C@H]2c2nc(-c3ccccc3)n[nH]2)n1` came in with an RP-LC retention time of 641 s.

`Cn1cc(CCN2CCC(C(=O)NCc3ccccc3Cl)CC2)c2cccnc21` registered an RP-LC retention time of 617 s.

With `Cc1nn(CCC(=O)NC2CCCCCC2)c(=O)c2nn(-c3ccccc3)c(C)c12`, the RP-LC retention time came to 830 s.

For `COc1ccc(Cl)c2c(=O)c3c([nH]c12)CCN(CC(=O)Nc1cccc(Cl)c1)C3`, the RP-LC retention time worked out at 645 s.

Turning to `Cc1nn(CC(=O)NCC2CCN(Cc3ccc(Cl)cc3)CC2)c(=O)c2noc(C)c12`, the RP-LC retention time stood at 617 s.

On to `N#Cc1cccc(S(=O)(=O)N2CCC(c3nnc(C(=O)Nc4ccc5c(c4)OCO5)s3)CC2)c1`, for which the RP-LC retention time is 951 s.

`CCOC(=O)c1cnn(-c2ccc(C(=O)Nc3ccc(Br)cc3)cn2)c1N` yielded an RP-LC retention time of 1020 s.

Consider `COC(=O)C1=CN(c2ccc(N(C)C)cc2)c2cc(F)ccc2S1(=O)=O`, for which the RP-LC retention time came to 926 s.

Molecule `Cc1ccc(-n2c(=O)n(C)c(=O)c3cc(C(=O)Nc4ccccc4C(N)=O)cnc32)cc1` yielded an RP-LC retention time of 857 s.

As to `COc1cc(NC(=O)N2CCC(CC(=O)N3CCN(c4ccccn4)CC3)CC2)cc(OC)c1OC`, the RP-LC retention time was 576 s.

As for `Cc1cccc(-c2noc(C3CC(=O)N(c4ccc5c(c4)OCO5)C3)n2)c1` (centres undefined), the RP-LC retention time turned out to be 978 s.

As to `CCCOc1ccc(-c2nc(-c3ccc(N)cc3)cs2)cc1`, the RP-LC retention time turned out to be 1120 s.

Molecule `CC(C)Oc1ccc(C(=O)O)cc1` registered an RP-LC retention time of 823 s.

Turning to `Cc1ccccc1NC(=O)C1C(=O)NC2(C)CC1c1ccccc1O2` (centres undefined), the RP-LC retention time is 869 s.

In turn, `CCOc1ccccc1C1CC(=O)NC(SCC(=O)Nc2nccs2)=C1C#N` (centres undefined) returned an RP-LC retention time of 734 s.

For the molecule `O=C(CC1CCCCC1)Nc1ccc(-c2cn3cccnc3n2)cc1`, the RP-LC retention time was 688 s.

Molecule `Cc1cnc(C2CCC2)n1CCNC(=O)c1nccn1C` yielded an RP-LC retention time of 556 s.
